Experimental data: US20220009906A1, “ISOINDOLIN-1-ONE DERIVATIVES USEFUL AS GRK2 INHIBITORS” (priority 2020, published 2022)
Like-named read-outs stand apart in the source and are kept apart here.

Target: T1, GRK2 (Homo sapiens, UniProt P25098)
T1 sequence (P25098 1-689): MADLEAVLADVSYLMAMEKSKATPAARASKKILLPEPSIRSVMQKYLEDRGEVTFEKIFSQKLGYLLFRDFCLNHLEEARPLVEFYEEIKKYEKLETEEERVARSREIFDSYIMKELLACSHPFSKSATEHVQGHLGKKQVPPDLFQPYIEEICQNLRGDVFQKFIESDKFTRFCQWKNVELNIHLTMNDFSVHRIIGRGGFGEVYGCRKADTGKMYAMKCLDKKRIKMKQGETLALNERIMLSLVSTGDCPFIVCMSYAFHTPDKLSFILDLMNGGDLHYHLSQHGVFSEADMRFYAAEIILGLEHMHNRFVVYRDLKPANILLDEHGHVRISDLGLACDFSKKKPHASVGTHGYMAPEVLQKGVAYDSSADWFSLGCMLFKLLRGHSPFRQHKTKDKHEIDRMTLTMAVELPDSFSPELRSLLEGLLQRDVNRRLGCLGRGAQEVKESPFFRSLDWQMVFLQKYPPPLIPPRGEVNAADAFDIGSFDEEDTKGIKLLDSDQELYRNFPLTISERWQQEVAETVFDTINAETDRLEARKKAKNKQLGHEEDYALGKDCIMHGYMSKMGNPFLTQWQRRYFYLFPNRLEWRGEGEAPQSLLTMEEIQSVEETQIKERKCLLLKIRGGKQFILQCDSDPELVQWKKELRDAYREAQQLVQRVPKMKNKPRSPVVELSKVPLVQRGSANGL
Test: hGRK2 LANCE Ultra In Vitro Assay
Format: biochemical
Method: hGRK2 LANCE Ultra In Vitro Assay
G-protein coupled receptor kinases (GR Kinases) desensitize activated G-protein coupled receptors (GPCRs), by phosphorylation of cytoplasmic loops or carboxyl-terminal tails of GPCRs. GRK2 is one of the 6 different GR kinases and is implicated in heart failure and diabetes.
This assay is sensitive and requires as low as 10 nM enzyme, in a total volume of 10 μL. In addition, the ATP concentration can be varied over a broad range, without interfering with the assay or changing the assay condition. […] Testing inhibitors routinely at both high and low ATP concentrations also enables identification of potential non-ATP competitive inhibitors.
Paroxetine was used as the reference compound in this assay.
Test compounds were dissolved in DMSO at 1 mM and were 3-fold serial diluted. The compound DMSO solutions were then added (100 nL) into a plate well using an acoustic dispenser. To each well was then added 20 nM GRK2 (5 μL) in assay buffer (20 mM HEPES, pH 7.5, 10 mM MgCl2, 0.001% Tween-20®). The plate was sealed and centrifuged at 1000 rpm for 1 min. The plate and wells containing a mixture of GRK2 and test compound were incubated at ambient temperature for 30 min (prior to initializing the enzymatic reaction).
Enzyme reactions were initiated by the addition of 4.9 μL Substrates/Eu-Ab mix to each well. […] Final concentrations of reagents in the assays were as follows: 20 mM HEPES, pH 7.5; 10 mM MgCl2; 0.001% Tween-20® (w/v); 30 or 600 μM ATP; 200 nM ULight-peptide; 4 nM Eu-Ab; 10 nM GRK2; and 1% DMSO.
The plates were sealed and centrifuged at 1000 rpm for 1 min. For reactions at low ATP concentration (30 μM), reaction mixtures were incubated at ambient temperature for 120 min. For reactions at high ATP concentration (600 μM), reaction mixtures were incubated at ambient temperature for 60 min.
The enzyme reactions were quenched by addition of 10 μL of 12 mM EDTA in 1× LANCE detection solution to each well. The plates were then incubated at ambient temperature for 30 min. Time-resolved fluorescence signal of reactions were read on an EnVision or PHERAstar plate reader with the following parameters: Excitation wavelength=337 nm; emission wavelength (donor)=620 nm; emission wavelength (acceptor)=665 nm.
The raw HTRF data were converted to % active as follows:
% active=(sample−NC)/(PC−NC)*100
where NC is the mean of negative control (reactions without GRK2), and PC is the mean of positive control (reactions with GRK2 but without inhibitor). IC50 values were determined from a 4-parameter fit, using the following equation:
Y=Bottom+(Top−Bottom)/(1+10^((Log IC50−X)*Hill slope))
where X=log10 of the compound concentration.

[1] = Biological Example 1 GRK2 Lancer IC50 (μM), 10 nM GRK2, 30 or 600 μM ATP (not stated which), multiple measurements listed individually

| SMILES | IC50 [1] | IC50 |
| --- | --- | --- |
| CC(C)NC(=O)c1cccc(CN2Cc3cc(F)c(-c4cn[nH]c4)cc3C2=O)c1 [Compound 166] | 0.005 µM |  |
| COc1cccc(-c2cc(-c3cn[nH]c3)cc3c2CN([C@H](C)c2cccc(OC)c2)C3=O)c1 [Compound 140, (R)-4-(3-methoxyphenyl)-2-(1-(3-methoxyphenyl)ethyl)-6-(1H-pyrazol-4-yl)isoindolin-1-one] | 0.265 µM |  |
| O=C1c2cc(-c3cn[nH]c3)ccc2CN1Cc1cccs1 [Compound 28, 6-(1H-Pyrazol-4-yl)-2-(thiophen-2-ylmethyl)isoindolin-1-one] | 0.091 µM |  |
| COc1cccc(C(CN(C)C)N2Cc3ccc(-c4cn[nH]c4)cc3C2=O)c1 (stereo not shown) [Compound 80, 2-(2-(dimethylamino)-1-(3-methoxyphenyl)ethyl)-6-(1H-pyrazol-4-yl)isoindolin-1-one] | 0.044 µM |  |
| COc1cccc([C@@H](C)N2Cc3c(cc(-c4cn[nH]c4)cc3N3CCNCC3)C2=O)c1 [Compound 155, (R)-2-(1-(3-methoxyphenyl)ethyl)-4-(piperazin-1-yl)-6-(1H-pyrazol-4-yl)isoindolin-1-one] | 0.007 µM |  |
| COc1cccc(CN2Cc3cc(F)c(-c4cn[nH]c4)cc3C2=O)c1 [Compound 35, 5-fluoro-2-[(3-methoxyphenyl)methyl]-6-(1H-pyrazol-4-yl)isoindolin-1-one] | 0.005 µM |  |
| O=C(NC1CC2CCC1C2)c1cccc(CN2Cc3ccc(-c4cn[nH]c4)cc3C2=O)c1 (stereo not shown) [Compound 174] | 0.003 µM |  |
| CNC1CCC2(C1)c1ccc(-c3cn[nH]c3)cc1C(=O)N2Cc1cccc(OC)c1 (stereo not shown) [Compound 118, 2′-(3-methoxybenzyl)-3-(methylamino)-5′-(1H-pyrazol-4-yl)spiro[cyclopentane-1,1′-isoindolin]-3′-one] | < 0.005 µM |  |
| C[C@H](c1cccc(C(=O)Nc2ccc(F)c(F)c2)c1)N1Cc2ccc(-c3cn[nH]c3)cc2C1=O [Compound 32] | 0.261 µM |  |
| O=C(O)COc1cccc(CN2Cc3ccc(-c4ccnc5[nH]ccc45)cc3C2=O)c1 [Compound 57] | 2.56 µM |  |
| COc1cccc(CN2C(=O)c3cc(-c4cn[nH]c4)ccc3C23CCCC3)c1 [Compound 42, 2′-(3-methoxybenzyl)-5′-(1H-pyrazol-4-yl)spiro[cyclopentane-1,1′-isoindolin]-3′-one] | 0.006 µM |  |
| COc1cccc(CN2C(=O)c3cc(-c4cn[nH]c4)ccc3C2Cc2nn[nH]n2)c1 (stereo not shown) [Compound 93, 3-((2H-tetrazol-5-yl)methyl)-2-(3-methoxybenzyl)-6-(1H-pyrazol-4-yl)isoindolin-1-one] | 0.02 µM |  |
| CCOc1cccc([C@@H](C)N2Cc3ccc(-c4cn[nH]c4)cc3C2=O)c1 [Compound 29, 2-[(1R)-1-(3-ethoxyphenyl)ethyl]-6-(1H-pyrazol-4-yl)isoindolin-1-one] | 0.006 µM |  |
| COc1cccc(CN2Cc3ccc(-c4ccnc5[nH]ccc45)cc3C2=O)c1 [Compound 50] | 0.334 µM |  |
| COc1cccc(C(CO)N2Cc3c(cc(-c4cn[nH]c4)cc3-c3cccnc3)C2=O)c1 (stereo not shown) [Compound 142, 2-(2-hydroxy-1-(3-methoxyphenyl)ethyl)-6-(1H-pyrazol-4-yl)-4-(pyridin-3-yl)isoindolin-1-one] | 0.008 µM |  |
| CCOc1cccc([C@@H](C)N2Cc3ccc(-c4ncccn4)cc3C2=O)c1 [Compound 171] | 0.104 µM |  |
| COc1cccc(CN2Cc3ccc(-n4cn[nH]c4=O)cc3C2=O)c1 [Compound 44, 2-(3-methoxybenzyl)-6-(5-oxo-1,5-dihydro-4H-1,2,4-triazol-4-yl)isoindolin-1-one] | 0.382 µM |  |
| COc1cccc(CN2C(=O)c3cc(-c4cn[nH]c4)ccc3C23CCC(OC)C3)c1 (stereo not shown) [Compound 170] | 0.006 µM |  |
| COc1cccc(C(CO)N2Cc3ccc(-c4ccnc(N)n4)cc3C2=O)c1 (stereo not shown) [Compound 64, 6-(2-aminopyrimidin-4-yl)-2-(2-hydroxy-1-(3-methoxyphenyl)ethyl)isoindolin-1-one] | 0.047 µM |  |

| SMILES | IC50 [1] | IC50 |
| --- | --- | --- |
| CCOc1cccc([C@H](CO)N2Cc3ccc(-c4cn[nH]c4)cc3C2=O)c1 [Compound 112] | 0.306 µM |  |
| COc1cccc([C@@H](C2CC2)N2Cc3ccc(-c4cn[nH]c4)cc3C2=O)c1 [Compound 96] | 0.012 µM |  |
| CCOc1cccc([C@@H](C)N2Cc3ccc(-c4cn[nH]c4)c(F)c3C2=O)c1 [Compound 48] | 0.01 µM |  |
| COc1cccc([C@@H](C)N2Cc3c(cc(-c4cn[nH]c4)cc3-c3cncnc3)C2=O)c1 [Compound 130, 2-[(1R)-1-(3-methoxyphenyl)ethyl]-6-(1H-pyrazol-4-yl)-4-pyrimidin-5-yl-isoindolin-1-one] | < 0.005 µM |  |
| O=C1c2cc(-c3cn[nH]c3)ccc2CN1Cc1cccc(OC2COC2)c1 [Compound 91] | 0.116 µM |  |
| CCOc1cccc(CN2C(=O)c3cc(-c4c[nH]nn4)ccc3C2(C)C)c1 [Compound 39, 2-(3-Ethoxybenzyl)-3,3-dimethyl-6-(1H-1,2,3-triazol-4-yl)isoindolin-1-one] | 0.196 µM |  |
| CC(C)NC(=O)c1cccc([C@@H](C)N2Cc3ccc(-c4cn[nH]c4)cc3C2=O)c1 [Compound 31] | 5.38 µM |  |
| COc1cccc([C@@H](C(=O)O)N2Cc3ccc(-c4cn[nH]c4)cc3C2=O)c1 [Compound 169] | 0.542 µM |  |
| CCOc1cccc([C@@H](CO)N2Cc3ccc(-c4cn[nH]c4)cc3C2=O)c1 [Compound 114] | 0.006 µM |  |
| COC(=O)NC1CCC2(C1)c1ccc(-c3cn[nH]c3)cc1C(=O)N2Cc1cccc(OC)c1 (stereo not shown) [Compound 109, methyl (2′-(3-methoxybenzyl)-3′-oxo-5′-(1H-pyrazol-4-yl)spiro[cyclopentane-1,1′-isoindolin]-3-yl)carbamate] | 0.006 µM |  |
| COc1cccc(CN2C(=O)c3cc(-c4cn[nH]c4)ccc3C23CCOCC3)c1 [Compound 82, 2-(3-methoxybenzyl)-5-(1H-pyrazol-4-yl)-2′,3′,5′,6′-tetrahydrospiro[isoindoline-1,4′-pyran]-3-one] | 0.007 µM |  |
| COc1cccc(C(CO)N2Cc3ccc(-c4cn[nH]c4)cc3C2=O)c1 (single isomer, unassigned) [Compound 113, 2-[(1S*)-2-hydroxy-1-(3-methoxyphenyl)ethyl]-6-(1H-pyrazol-4-yl)isoindolin-1-one] | 0.003 µM |  |
| COc1cccc(CN2C(=O)c3cc(-c4cn[nH]c4)ccc3C2(CCO)CCO)c1 [Compound 41, 3,3-bis(2-hydroxyethyl)-2-(3-methoxybenzyl)-6-(1H-pyrazol-4-yl)isoindolin-1-one] | 0.034 µM |  |
| CC(=O)Oc1cccc(CN2Cc3ccc(-c4cn[nH]c4)cc3C2=O)c1 [Compound 136] | 0.014 µM |  |
| O=C1c2cc(-c3cn[nH]c3)ccc2CN1Cc1cccc(-n2cccn2)c1 [Compound 119] | 0.113 µM |  |
| COc1cccc([C@@H](C)N2C(=O)c3cc(-c4cn[nH]c4)ccc3C2CCO)c1 (stereo partly drawn) [Compound 49, 3-(2-hydroxyethyl)-2-((R)-1-(3-methoxyphenyl)ethyl)-6-(1H-pyrazol-4-yl)isoindolin-1-one] | < 0.005 µM |  |
| COc1cccc(CN2C(=O)c3cc(-c4cn[nH]c4)ccc3C23CCCC3C(=O)O)c1 (stereo not shown) [Compound 110, 2′-(3-methoxybenzyl)-3′-oxo-5′-(1H-pyrazol-4-yl)spiro[cyclopentane-1,1′-isoindoline]-2-carboxylic acid] |  | 0.307 µM |
| CC(c1cccc(Oc2ccccc2)c1)N1Cc2ccc(-c3cn[nH]c3)cc2C1=O (stereo not shown) [Compound 104] | > 11 µM |  |
